Measured values taken from PubChem BioAssay AID256 (DTP/NCI, 2004).
Toxic doses and inconclusive results are not listed.

Test system: CD2F1 mice, L1210 leukemia ip, survival T/C
Test: NCI In Vivo Anticancer Drug Screen. Data for tumor model L1210 Leukemia (intraperitoneal) in CD2F1 (CDF1) mice
Details: higher = longer survival
Summary of the method: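 Read-out first: treated-group measurement over vehicle-control measurement, expressed as a ratio. Animals bore a transplanted tumor line and were dosed with compound or vehicle.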

[1] = endpoint: mean survival time, dose: 25.0 mg/kg/injection, schedule: Q01DX009 (ip), vehicle: saline with Tween-80
[2] = endpoint: mean survival time, dose: 100.0 mg/kg/injection, schedule: Q01DX009 (ip), vehicle: saline with Tween-80
[3] = endpoint: mean survival time, dose: 100.0 mg/kg/injection, schedule: Q04DX003 (ip), vehicle: saline with Tween-80
[4] = endpoint: mean survival time, dose: 200.0 mg/kg/injection, schedule: Q04DX003 (ip), vehicle: saline with Tween-80
[5] = endpoint: mean survival time, dose: 400.0 mg/kg/injection, schedule: Q04DX003 (ip), vehicle: saline with Tween-80
[6] = endpoint: mean survival time, dose: 100.0 mg/kg/injection, schedule: Q04DX002 (ip), vehicle: saline with Tween-80
[7] = endpoint: mean survival time, dose: 200.0 mg/kg/injection, schedule: Q04DX002 (ip), vehicle: saline with Tween-80
[8] = endpoint: mean survival time, dose: 200.0 mg/kg/injection, schedule: Q01DX009 (ip), vehicle: saline with Tween-80
[9] = endpoint: mean survival time, dose: 400.0 mg/kg/injection, schedule: Q01DX009 (ip), vehicle: saline with Tween-80
[10] = endpoint: median survival time, dose: 50.0 mg/kg/injection, schedule: Q01DX005 (ip), vehicle: DMSO
[11] = endpoint: median survival time, dose: 100.0 mg/kg/injection, schedule: Q01DX005 (ip), vehicle: DMSO
[12] = endpoint: median survival time, dose: 200.0 mg/kg/injection, schedule: Q01DX005 (ip), vehicle: DMSO

## CC(C)NC(=O)OCc1c(COC(=O)NC(C)C)c(-c2ccc(Cl)c(Cl)c2)n2c1CCC2
endpoint: mean survival time, dose: 6.25 mg/kg/injection, schedule: Q01DX009 (ip), vehicle: distilled water + Tween-80
  T/C: 115 % of control
endpoint: mean survival time, dose: 6.25 mg/kg/injection, schedule: Q01DX009 (ip), vehicle: saline with Tween-80
  T/C: 103 % of control
endpoint: mean survival time, dose: 12.5 mg/kg/injection, schedule: Q01DX009 (ip), vehicle: distilled water + Tween-80
  T/C: 118 % of control
endpoint: mean survival time, dose: 12.5 mg/kg/injection, schedule: Q01DX009 (ip), vehicle: saline with Tween-80
  T/C: 116 % of control
[1]
  T/C: 121 % of control
[2]
  T/C: 89 % of control
endpoint: median survival time, dose: 50.0 mg/kg/injection, schedule: Q01DX005 (ip), vehicle: saline with Tween-80
  T/C: 151 % of control
endpoint: median survival time, dose: 100.0 mg/kg/injection, schedule: Q01DX005 (ip), vehicle: saline with Tween-80
  T/C: 179 % of control
endpoint: median survival time, dose: 200.0 mg/kg/injection, schedule: Q01DX005 (ip), vehicle: saline with Tween-80
  T/C: 190 % of control
endpoint: median survival time, dose: 800.0 mg/kg/injection, schedule: Q01DX005 (ip), vehicle: saline with Tween-80
  T/C: 102 % of control

## CCCCCNCCOC(=O)c1ccc(N)cc1
endpoint: mean survival time, dose: 5.0 mg/kg/injection, schedule: Q01DX001 (ip), vehicle: saline
  T/C: 100 % of control
endpoint: mean survival time, dose: 10.0 mg/kg/injection, schedule: Q01DX001 (ip), vehicle: saline
  T/C: 100 % of control
endpoint: mean survival time, dose: 20.0 mg/kg/injection, schedule: Q01DX001 (ip), vehicle: saline
  T/C: 94 % of control
endpoint: mean survival time, dose: 40.0 mg/kg/injection, schedule: Q01DX001 (ip), vehicle: saline
  T/C: 104 % of control

## O=C(c1ccccc1)C1(O)CCCCC1
endpoint: mean survival time, dose: 50.0 mg/kg/injection, schedule: Q01DX009 (ip), vehicle: saline sonified
  T/C: 97 % of control
endpoint: mean survival time, dose: 100.0 mg/kg/injection, schedule: Q01DX009 (ip), vehicle: saline sonified
  T/C: 105 % of control
endpoint: mean survival time, dose: 200.0 mg/kg/injection, schedule: Q01DX009 (ip), vehicle: saline sonified
  T/C: 97 % of control

## O=c1oc2c(O)c(O)cc3c(=O)oc4c(O)c(O)cc1c4c23
endpoint: mean survival time, dose: 12.5 mg/kg/injection, schedule: Q01DX009 (ip), vehicle: Klucel (hydroxypropylcellulose) (HPC)
  T/C: 100 % of control
endpoint: mean survival time, dose: 25.0 mg/kg/injection, schedule: Q01DX009 (ip), vehicle: Klucel (hydroxypropylcellulose) (HPC)
  T/C: 113 % of control
endpoint: mean survival time, dose: 50.0 mg/kg/injection, schedule: Q01DX009 (ip), vehicle: Klucel (hydroxypropylcellulose) (HPC)
  T/C: 113 % of control
endpoint: mean survival time, dose: 100.0 mg/kg/injection, schedule: Q01DX009 (ip), vehicle: Klucel (hydroxypropylcellulose) (HPC)
  T/C: 106 % of control
endpoint: mean survival time, dose: 200.0 mg/kg/injection, schedule: Q01DX009 (ip), vehicle: Klucel (hydroxypropylcellulose) (HPC)
  T/C: 95 % of control
endpoint: mean survival time, dose: 400.0 mg/kg/injection, schedule: Q01DX009 (ip), vehicle: Klucel (hydroxypropylcellulose) (HPC)
  T/C: 103 % of control

## Cc1ccccc1C(C)C
[3]
  T/C: 101 % of control
[4]
  T/C: 97 % of control
[5]
  T/C: 101 % of control

## CC(C)[Si](F)(c1ccc(Br)cc1)C(C)C
[3]
  T/C: 108 % of control
[4]
  T/C: 106 % of control
[5]
  T/C: 93 % of control

## c1ccc(N(c2ccccn2)c2ccccn2)nc1
endpoint: mean survival time, dose: 25.0 mg/kg/injection, schedule: Q04DX002 (ip), vehicle: saline with Tween-80
  T/C: 101 % of control
endpoint: mean survival time, dose: 50.0 mg/kg/injection, schedule: Q04DX002 (ip), vehicle: saline with Tween-80
  T/C: 101 % of control
[6]
  T/C: 97 % of control
[7]
  T/C: 97 % of control

## Cc1ccc(S(=O)(=O)OCC2C(COS(=O)(=O)c3ccc(C)cc3)C3CCC2C2C3C3C2C2(C)C(=O)C3(C)C(c3ccccc3)=C2c2ccccc2)cc1 (stereo unspecified)
endpoint: mean survival time, dose: 100.0 mg/kg/injection, schedule: Q04DX002 (ip), vehicle: other
  T/C: 102 % of control
endpoint: mean survival time, dose: 200.0 mg/kg/injection, schedule: Q04DX002 (ip), vehicle: other
  T/C: 102 % of control
endpoint: mean survival time, dose: 400.0 mg/kg/injection, schedule: Q04DX002 (ip), vehicle: other
  T/C: 111 % of control

## Fc1c(F)c(F)c(OP2(Oc3c(F)c(F)c(F)c(F)c3F)=NP(Oc3c(F)c(F)c(F)c(F)c3F)(Oc3c(F)c(F)c(F)c(F)c3F)=NP(Oc3c(F)c(F)c(F)c(F)c3F)(Oc3c(F)c(F)c(F)c(F)c3F)=N2)c(F)c1F
[2]
  T/C: 103 % of control
[3]
  T/C: 98 % of control
[8]
  T/C: 101 % of control
[4]
  T/C: 95 % of control
[9]
  T/C: 95 % of control
[5]
  T/C: 98 % of control

## O=C(c1ccccc1Cl)n1c2c(c3ccccc31)CCCC2
[2]
  T/C: 110 % of control
[3]
  T/C: 101 % of control
[8]
  T/C: 103 % of control
[4]
  T/C: 95 % of control
[9]
  T/C: 96 % of control
[5]
  T/C: 97 % of control

## CN(C)C1CCC(Nc2nc(Nc3cc(Cl)cc(Cl)c3)nc3ccccc23)CC1 (stereo unspecified)
[1]
  T/C: 102 % of control
endpoint: mean survival time, dose: 25.0 mg/kg/injection, schedule: Q04DX003 (ip), vehicle: saline with Tween-80
  T/C: 101 % of control
endpoint: mean survival time, dose: 50.0 mg/kg/injection, schedule: Q01DX009 (ip), vehicle: saline with Tween-80
  T/C: 96 % of control
endpoint: mean survival time, dose: 50.0 mg/kg/injection, schedule: Q04DX003 (ip), vehicle: saline with Tween-80
  T/C: 103 % of control
[3]
  T/C: 98 % of control

## CCCCCCC[CH2][Sn]1([CH2]CCCCCCC)[O]C2C(CO)OC(n3ccc(=O)[nH]c3=O)C2[O]1 (stereo unspecified)
endpoint: mean survival time, dose: 12.5 mg/kg/injection, schedule: Q01DX005 (ip), vehicle: other
  T/C: 100 % of control
endpoint: mean survival time, dose: 25.0 mg/kg/injection, schedule: Q01DX005 (ip), vehicle: other
  T/C: 90 % of control
endpoint: mean survival time, dose: 50.0 mg/kg/injection, schedule: Q01DX005 (ip), vehicle: other
  T/C: 91 % of control
endpoint: mean survival time, dose: 100.0 mg/kg/injection, schedule: Q01DX005 (ip), vehicle: other
  T/C: 94 % of control
endpoint: mean survival time, dose: 200.0 mg/kg/injection, schedule: Q01DX005 (ip), vehicle: other
  T/C: 91 % of control

## CC(O)c1cc2ccccc2n1C (stereo unspecified)
endpoint: mean survival time, dose: 100.0 mg/kg/injection, schedule: Q01DX001 (ip), vehicle: saline with Tween-80
  T/C: 98 % of control
endpoint: mean survival time, dose: 200.0 mg/kg/injection, schedule: Q01DX001 (ip), vehicle: saline with Tween-80
  T/C: 103 % of control
endpoint: mean survival time, dose: 400.0 mg/kg/injection, schedule: Q01DX001 (ip), vehicle: saline with Tween-80
  T/C: 101 % of control

## COc1ccc(N=C(C)C2C(=O)c3ccccc3C2=O)cc1
[10]
  T/C: 101 % of control
[11]
  T/C: 101 % of control
[12]
  T/C: 103 % of control
endpoint: median survival time, dose: 400.0 mg/kg/injection, schedule: Q01DX005 (ip), vehicle: DMSO
  T/C: 103 % of control
endpoint: median survival time, dose: 800.0 mg/kg/injection, schedule: Q01DX005 (ip), vehicle: DMSO
  T/C: 101 % of control

## CC(CNC(=O)C12CC3CC(CC(C3)C1)C2)NC(=O)C12CC3CC(CC(C3)C1)C2 (stereo unspecified)
endpoint: median survival time, dose: 12.5 mg/kg/injection, schedule: Q01DX005 (ip), vehicle: DMSO
  T/C: 101 % of control
endpoint: median survival time, dose: 25.0 mg/kg/injection, schedule: Q01DX005 (ip), vehicle: DMSO
  T/C: 104 % of control
[10]
  T/C: 101 % of control
[11]
  T/C: 98 % of control
[12]
  T/C: 101 % of control

## CC1(C)C([N+](C)(C)C)CS1(=O)=O (stereo unspecified)
endpoint: mean survival time, dose: 100.0 mg/kg/injection, schedule: Q01DX001 (ip), vehicle: saline
  T/C: 105 % of control
endpoint: mean survival time, dose: 100.0 mg/kg/injection, schedule: Q04DX003 (ip), vehicle: saline
  T/C: 96 % of control
endpoint: mean survival time, dose: 200.0 mg/kg/injection, schedule: Q01DX001 (ip), vehicle: saline
  T/C: 103 % of control
endpoint: mean survival time, dose: 200.0 mg/kg/injection, schedule: Q04DX003 (ip), vehicle: saline
  T/C: 101 % of control
endpoint: mean survival time, dose: 400.0 mg/kg/injection, schedule: Q01DX001 (ip), vehicle: saline
  T/C: 103 % of control
endpoint: mean survival time, dose: 400.0 mg/kg/injection, schedule: Q04DX003 (ip), vehicle: saline
  T/C: 96 % of control

## CC(C)(C)C(=O)CC1(O)C(=O)Nc2cccc(C(F)(F)F)c21 (stereo unspecified)
[6]
  T/C: 102 % of control
[7]
  T/C: 109 % of control
endpoint: mean survival time, dose: 400.0 mg/kg/injection, schedule: Q04DX002 (ip), vehicle: saline with Tween-80
  T/C: 102 % of control

## CCC(=O)OCC1OC(n2ccc(O)cc2=O)C(O)C1O (stereo unspecified)
endpoint: median survival time, dose: 44.0 mg/kg/injection, schedule: Q01DX009 (ip), vehicle: saline + alcohol
  T/C: 178 % of control
endpoint: median survival time, dose: 67.0 mg/kg/injection, schedule: Q01DX009 (ip), vehicle: saline + alcohol
  T/C: 174 % of control
endpoint: median survival time, dose: 100.0 mg/kg/injection, schedule: Q01DX009 (ip), vehicle: saline + alcohol
  T/C: 174 % of control
endpoint: median survival time, dose: 150.0 mg/kg/injection, schedule: Q01DX009 (ip), vehicle: saline + alcohol
  T/C: 153 % of control

## Clc1cccc(-n2ccnc2)c1
[2]
  T/C: 109 % of control
[8]
  T/C: 113 % of control
